Values of other authors as cited in publication PMC11984905, “Chiral Switch of Gadopiclenol: New Standards in MRI Probes” (Advanced Science, 2025).
Read-outs that look alike come from different tables or passages of the source. Marks after values point to notes of the source that are not given here.

Assays:
[1] = design: method as in earlier work; conditions: stability constant of the Na+ complex; cited from earlier work
[2] = pH 7.4, 0.15 M NaCl, 25 °C; cited from earlier work
[3] = 0.1 M KCl; cited from earlier work
[4] = 0.1 M KCl; cited from earlier work; remark: listed apart in the source
[5] = 25 °C, cited from earlier work
[6] = 0.1 M KCl; cited from earlier work; remark: listed apart in the source
[7] = cited from earlier work; for pGd: [Gd^3+]tot = 1 µM, [L]tot = 10 µM; for pGd / logK^c GdL: pH 7.4, calculated from literature constants

SMILES: O=C(O)CN1CCN(CC(=O)O)CCN(CC(=O)O)CCN(CC(=O)O)CC1 [DOTA]
- logKNa(L) [1]: 4.38
- k d at pH = 7.4 [2]: 7.3 × 10^−14 s^−1
- logK CuL [3]: 22.72
- logKCuH2L [3]: 3.92
- logKCuHL [3]: 4.45
- logK CaL [4]: 16.37
- logKCaHL [4]: 3.60
- logK1^H ([5]; 0.1 M KCl): 11.14
- logK2^H ([5]; 0.1 M KCl): 9.69
- logK3^H ([5]; 0.1 M KCl): 4.85
- logK4^H ([5]; 0.1 M KCl): 3.95
- ΣlogKi^H ([5]; 0.1 M KCl): 29.63
- logK1^H ([5]; 0.1 M Me4NCl): 11.45
- logK2^H ([5]; 0.1 M Me4NCl): 9.64
- logK3^H ([5]; 0.1 M Me4NCl): 4.60
- logK4^H ([5]; 0.1 M Me4NCl): 4.11
- logK5^H ([5]; 0.1 M Me4NCl): 2.29
- ΣlogKi^H ([5]; 0.1 M Me4NCl): 32.09
- logK1^H ([5]; 0.15 M NaCl): 9.14
- logK2^H ([5]; 0.15 M NaCl): 9.21
- logK3^H ([5]; 0.15 M NaCl): 4.48
- logK4^H ([5]; 0.15 M NaCl): 4.03
- logK5^H ([5]; 0.15 M NaCl): 1.99^d)
- ΣlogKi^H ([5]; 0.15 M NaCl): 28.85
- logK ZnL [6]: 18.7
- logKZnH2L [6]: 3.96
- logKZnHL [6]: 5.33
- logKGdHL ([7]; 0.1 M KCl): 1.15
- logK GdL ([7]; 0.1 M Me4NCl, 25 °C): 25.6
- logK GdL ([7]; 0.1 M NaCl, 25 °C): 24.7
- pGd ([7]; 0.1 M Me4NCl, 25 °C): 20.24
- pGd ([7]; 0.1 M NaCl, 25 °C): 22.09
- *logKGd(H2L) ([7]; diprotonated out-of-cage intermediate, 0.15 M NaCl, 25 °C): 6.07^f)
- logK^c GdL ([7]; 0.1 M Me4NCl, 25 °C): 19.29
- logK^c GdL ([7]; 0.1 M NaCl, 25 °C): 21.14
